In publication PMC5282547, “The Proline/Arginine Dipeptide from Hexanucleotide Repeat Expanded C9ORF72 Inhibits the Proteasome” (eNeuro, 2017):
Entries after “also recorded” stand apart in the source; their conditions may differ. Where a SMILES comes first, the peptide text is derived from it. The star is where a group is joined. Cbz = O=C(OCc1ccccc1)*

Key:
[1] = system: motor neurons; assay: Motor neuron survival with IU1 co-treatment; type: cell-based, rat
Method: Days in vitro (DIV)14 mixed spinal cord cultures were exposed to PR20 or GR20 by addition of synthetic peptide to the media one time. Cultures were fixed 5 d later with freshly prepared 4% paraformaldehyde for 20 min, washed extensively with 0.1 M PBS, pH 7.4, and immunostained with SMI32 to identify motor neurons. […] Motor neurons were counted in three nonoverlapping, randomly selected fields on a coverslip using a 5[times objective, and the values from a single coverslip averaged.
For experiments involving IU1, DIV14 cultures were treated with PR20 or its vehicle, and every other day, IU1 (or vehicle) was added to the culture media to achieve a final concentration of 5 µM. At DIV19, cultures were fixed and motor neuron number determined as described above.

[2] = system: motor neurons; assay: Motor neuron survival in mixed spinal cord cultures (SMI32 counts), LD50 determination; type: cell-based, rat
Method: Mixed spinal cord neuron cultures were prepared as described previously ([Mojsilovic-Petrovic et al., 2006]). Briefly, an astrocyte feeder layer was prepared from the cortex of newborn Sprague Dawley rat pups [postnatal day 2 (P2)] and grown to ∼80% confluency. Subsequently, dissociated embryonic day 15 (E15) spinal cord neurons were added. One to two days later, AraC ([…]) (catalog #C6645; Sigma) was added for 24 h to arrest astrocyte proliferation. Cultures were maintained in glia-conditioned medium supplemented with the following trophic factors (1.0 ng/ml each): human neurotrophin-3, human neurotrophin-4, human brain-derived neurotrophic factor, and rat ciliary neurotrophic factor (Alomone Labs). Half of the culture medium was replaced on a biweekly basis.
Days in vitro (DIV)14 mixed spinal cord cultures were exposed to PR20 or GR20 by addition of synthetic peptide to the media one time. Cultures were fixed 5 d later with freshly prepared 4% paraformaldehyde for 20 min, washed extensively with 0.1 M PBS, pH 7.4, and immunostained with SMI32 to identify motor neurons. Immunopositive cells >25 µm in diameter are motor neurons based on their costaining for peripherin, ChAT, and islet 1/2 ([Mojsilovic-Petrovic et al., 2006]). Motor neurons were counted in three nonoverlapping, randomly selected fields on a coverslip using a 5[times objective, and the values from a single coverslip averaged. The results of 3-5 independently treated coverslips were the basis and means and variance used in statistical analysis. Each experiment was repeated with independently generated culture 4+ times ([Mojsilovic-Petrovic et al., 2006]).
Motor neuron survival 5 d later was determined. Once the approximate LD50 was determined, we repeated the analysis with more closely spaced concentrations for a more precise definition of the LD50. Determination of the LD50 of MG132 was accomplished in an identical manner.

[3] = system: ubiquitin-proteasome system; assay: MG-132 flux assay (flux of ubiquitylated substrates through the UPS); type: cell-based, rat
Method: MG-132 (Sigma) was used to inhibit proteasomal function. Cells were initially treated with PR20 for a total of 48 h using the method outlined in PR20 treatment for biochemical assays. Four hours prior to lysis, these cells were treated with MG-132 or vehicle. The MG-132 was kept in a stock solution in DMSO. This was added directly to culture to achieve a final concentration of 5 μM. Cells were then lysed in RIPA buffer and immunoblotted for ubiquitin.
Ubiquitin analysis requires the use of deubiquitinase (DUB) inhibitors. Lysis without these inhibitors runs the risk of degradation of the substrates to be targeted. As such, N-ethylmaleimide (Sigma), a potent DUB inhibitor, was used in the lysis buffer. […] The remainder of the lysis procedure follows Cell lysis.
To test for group differences in the flux assay, a permutation test was used. This is a nonparametric statistical test that was implemented in MATLAB. […] The test first quantifies this by taking the average of each experimental group and then finding the difference of ratios. It then permutes two samples located in two groups randomly, and determines that difference between averages again. This is repeated 50,000 times, and a histogram is plotted. This histogram represents the distribution of random noise in the sample. Since a higher difference in the +MG132/−MG132 ratio is a more “significant” result, the percentage of the random noise produced from 50,000 permutations that is higher in magnitude than the true difference (calculated from un-permuted data) is the p value.
Permutations of a data point in a +MG132 into a group labeled −MG132 (or vice versa) were not allowed. […] Thus, this group difference was not interesting to us.

[4] = system: Dendra2-LC3; assay: Autophagic flux assay, optical pulse labeling of Dendra2-LC3; type: cell-based, rat
Method: (§1) Primary spinal neurons were dissected from E15 rat pups and cultured at a density of 2.5 × 10^5 cells/ml on a laminin/poly-lysine-coated 96-well plate in motor neuron media. Four days after plating, neurons were transfected with Lipofectamine 2000 (Invitrogen). DNA-Lipofectamine mixtures were incubated with neurons for 20 min followed by rinsing. Neurons were then placed in 100 µL of conditioned media that was collected immediately prior to transfection and half fresh motor neuron media containing 4 µM PR20, resulting in a final concentration of 2 µM PR20.
(§2) Optical pulse labeling experiments were performed using an automated microscopy platform previously described by [Arrasate et al. (2004)] and [Barmada et al. (2014)]. A Nikon Eclipse Ti inverted microscope equipped with a PerfectFocus system, 20× objective lens and an Andor iXon3 897 EMCCD camera were used to acquire images. Samples were illuminated with a Sutter Instruments Lamba XL lamp. The microscope and related components were encased in custom-built plexiglass enclosure set to maintain the temperature at 37°C and CO2 at 5%. Semrock GFP and TRITC filters were used for excitation and detection. A Semrock 405-nm long-pass filter was used for photoactivation. Image acquisition and stage movements were accomplished in an automated fashion using µManager and original code written in BeanShell. For all experiments, photoconversion occurred 24 h following transfection. GFP and TRITC images were acquired immediately following activation and subsequently every 2 h for 12 h. Images were acquired in a similar 12-h window starting 48 h after PR20 treatment. Using in-house image analysis scripts, neuronal cell bodies were identified based on their fluorescent intensity and morphology, and a ROI was drawn around the perimeter of each cell at each time. Single-cell TRITC intensity values were recorded and used to fit a first order exponential decay curve for individual neurons and calculate a Dendra2-light chain 3 (LC3) half-life for each cell. […]

[5] = system: Dendra2; assay: Optical pulse labeling of Dendra2; type: cell-based, rat; details: vehicle 29.6 h
Method: as §1, §2

[6] = system: U2OS cells and human astrocytes; details: cited from earlier work
Source text: The difficulty of distinguishing between toxic HRE mRNA and DPR proteins has impeded our understanding of the mechanism underlying C9ORF72 HRE pathophysiology. As reported in Science ([Kwon et al., 2014]), the McKnight lab devised a strategy to overcome this problem: they studied U2OS cells and human astrocytes directly exposed to synthetic DPR proteins. […] We built upon this approa ...

[7] = system: mixed spinal cord cultures; assay: Cellular accumulation and disposal of HA-tagged DPR (immunoblot of cell lysates, continuous exposure or 2-h pulse-chase)
Method: Confluent dishes of astrocyte neuron cocultures at 37°C had volumes equalized to 2 ml of cell culture media each. Approximately 300 μl of media from each dish was removed and pooled with other dishes, PR20 stock solution was added, and the mixture was then added back to the corresponding culture dish, so that each dish contained a final concentration of 2 μM. All plates were incubated with PR20 for 48 h.
Lysis buffer was prepared containing 1% (v/v) protease inhibitor cocktail, 1% (v/v) PMSF, and 1% (v/v) leucine in 1% RIPA buffer solution on ice. Culture dishes were washed once with ice-cold PBS to remove any remaining media. A total of 125 μl (35-mm dish), 150 μl (6-well plate), or 250 μL (60-mm dish) of lysis buffer was added to each plate, and cells were scraped into a cold 1.5-ml tube. Samples were sonicated for 30 s at 20% intensity, placed on a rotator at 4°C for 20 min, and then centrifuged for 15 min at 13,200 rpm. Supernatant was then removed from each tube for further analysis.
We investigated the fate of PR20 in mixed spinal cord cultures through immunoblotting and immunocytochemistry. […] To gain further insight into the kinetics of the observed decrease in PR20 levels in cell lysates over time, we pulsed cells with 2 µM PR20 for 2 h, washed, replaced with fresh media (lacking PR20), and made cell lysates at regular intervals thereafter. […] To more easily follow GR20 by immunoblotting, we applied 10 µM GR20 to cultures and performed the same kinetic analysis as described in Figure 1D.

[8] = 10 µM in media, continuous exposure

Cc1cc(C(=O)CN2CCCC2)c(C)n1-c1ccc(F)cc1 [IU1]
effect of IU1 on MG132-induced reduction in motor neuron number ([1]; 5 µM IU1, 150 nM MG132, 5 d): reversed | effect of IU1 on PR20-induced motor neuron death ([1]; 5 µM IU1 every other day with PR20, 5 d, p < 0.05): blocks the toxic effects; also recorded: rescued to control levels; also recorded: prevents this effect | effect of IU1 alone on motor neuron survival ([1]; 5 µM IU1 every other day, vehicle-treated cells, 5 d): not toxic; also recorded: did not influence the survival

GR20: synthetic, HA-tagged dipeptide repeat protein: glycine/arginine repeated 20 times
toxicity to motor neurons at ∼20 times higher concentration than PR20 ([2]; 5 d): not toxic | proteasomal flux (difference in ubiquitin +/- MG-132) versus vehicle ([3]; peptide 48 h (PR20 2 µM), then MG-132 5 µM or vehicle 4 h, permutation test): neither influenced total ubiquitin levels nor proteasomal flux | extension of Dendra2-LC3 half-life compared with control ([4]; 2 µM peptide, primary spinal neurons, single-cell optical pulse labeling): 1.5 h | Dendra2 half-life ([5]; 2 µM peptide, not significantly different from vehicle): 31.0 h | toxic concentration range [6]: 10 to 30 µM | period of maximal accumulation in cells [7, 8]: first hour | time point at which immunoblot signal is undetectable [7, 8]: 24 h | earliest detection in cell lysates ([7]; 10 µM in media, continuous exposure, anti-HA immunoblot): 15 min | lysate fractions with detectable Western blot signal at the 2-h time point ([7]; 2-h pulse-chase, 10 µM): soluble fraction only | time point by which signal diminishes to a barely detectable level ([7]; 2-h pulse-chase, 10 µM): 4 h | half-life of dipeptide in cells ([7]; immunoblot of mixed spinal cord culture lysates): on the orders of hours | detectability by immunoblotting in lysates ([7]; single 2-h application of 2 µM): weakly detectable

CC(C)C[C@@H](C=O)NC(=O)[C@H](CC(C)C)NC(=O)[C@H](CC(C)C)NC(=O)OCc1ccccc1 [MG132, reference compound] (Cbz-Leu-Leu-Leu-aldehyde)
LD50, motor neuron number ([2]; added one time to mixed spinal cord cultures, counted 5 d later): 100 to 150 nM | proteasomal flux versus control ([3]; 150 nM MG132 48 h, then 5 µM MG132 or vehicle 4 h, n = 6, p = 0.027): statistically significant reduction | extension of Dendra2-LC3 half-life compared with control ([4]; 10 µM MG132, primary spinal neurons): 11.9 h | Dendra2 half-life ([5]; MG132 (10 µM), p = 3.23 × 10^−5): 32.3 h | motor neuron number compared with all other experimental groups ([1]; 150 nM MG132, 5 d, p = 0.001): statistically significantly fewer motor neurons
